Test results as given in US8222380B2, “Amorphous telithromycin compound” (Sandoz AG, priority 2006, dated 2012).

Assays:
[1] = Stress storage in closed vial, impurity increase by HPLC; assay type: physicochemical; details: closed vial at 80° C. for 24 hours; spray-dried sample of Example 1
Procedure: The sample was stressed in a closed vial at 80° C. for 24 hours. An increase in impurities of 0.2 area % was observed when measured by HPLC under the following conditions: column: symmetry C18 3.5 μm; eluent: buffer pH 4.4 (4.76 g KH2PO4 in 2000 ml H2O adjusted to pH 4.4 using H3PO4), acetonitrile (2000 ml buffer+666 ml acetonitrile); measurement at a wavelength of 205 nm; inj. Vol […]; temperature 40° C.

[2] = Stability of the amorphous state on storage judged by XRPD; assay type: physicochemical; details: after 8 weeks of storage
Procedure: The invention therefore relates to a stable amorphous form of telithromycin (3-De[(2,6-dideoxy-3-C-methyl-3-O-methyl-α-L-ribohexopyranosyl)oxy]-11,12-dideoxy-6-O-methyl-3-oxo-12,11-[oxycarbonyl[[4-[4-(3-pyridinyl)-1H-imidazol-1-yl]butyl]imino]]erythromycin). […] The stable amorphous form of telithromycin as obtained according to example 2 was analyzed by X-ray powder diffraction diagrams, measured using an AXS-Bruker D-8 diffractometer (Cu-radiation, Bragg Brentano Optics, 40 kV, 40 mA, steps 0.01°, time 2 seconds, cut-off 40°, standard sample carrier).

increase in impurities measured by HPLC [1]: 0.2 area %
SMILES: CCC1OC(=O)[C@H](C)C(=O)[C@H](C)[C@@H](OC2OC(C)CC(N(C)C)C2O)[C@](C)(OC)C[C@@H](C)C(=O)[C@H](C)[C@H]2N(CCCCn3cnc(-c4cccnc4)c3)C(=O)O[C@]12C (stereo partly drawn) [amorphous telithromycin, 3-De[(2,6-dideoxy-3-C-methyl-3-O-methyl-α-L-ribohexopyranosyl)oxy]-11,12-dideoxy-6-O-methyl-3-oxo-12,11-[oxycarbonyl[[4-[4-(3-pyridinyl)-1H-imidazol-1-yl]butyl]imino]]erythromycin]
presence of crystalline telithromycin as judged by X-ray powder diffractogram [2]: no signs of the presence of crystalline telithromycin
